Tests used:
Assay type in all cases: biochemical
[1] = target: T1, VEGFR-2 (Homo sapiens, UniProt P35968); assay: HTRF enzyme assay with recombinant VEGFR-2 kinase domain; conditions: purified recombinant VEGFR-2 kinase domain, HTRF; read-out: Inhibitory Activity, IC50, VEGFR-2
T1 construct: was evaluated using an enzyme assay with a recombinant kinase domain; purchased Invitrogen (Carlsbad, CA, US)
Description: (§1) The ability of the synthesized compounds to inhibit MET, c-Kit, and VEGFR-2 activities was evaluated using an enzyme assay with a recombinant kinase domain [29]. Based on the structure activity relationship (SAR) of MET inhibitors, we proposed that the removal of the key diaryl ether fragments in compound 3 would result in a loss of MET activity.
(§2) The ability of compounds to inhibit the activity of three kinases (MET, c-Kit, and VEGFR-2) was tested in vitro [30]. Enzyme assays were run in homogeneous time-resolved fluorescence (HTRF) format in 384-well microtiter plates using purified kinases purchased from Invitrogen (Carlsbad, CA, US). The HTRF KinEASE TK kit (contains substrate-biotin, antibody-cryptate, streptavidin-XL665, 5×enzymatic buffer, and detection buffer) was purchased from Cisbio (Codolet, France), and the kinase assays were performed according to the manufacturer’s instructions. After the kinases and the compounds incubated at 25~30 °C for 5 min, the reactions were initiated by the addition of 2 μL of mixed substrate solution (mixed solution of ATP (Sigma, Shanghai, China) and substrate-biotin). The final concentrations of kinases were at EC80 and the total reaction volume was 8 μL. Plates were incubated at 30 °C for 30~60 min, then the reactions were quenched by the addition 8 μL mixed detection solution (mixed solution of antibody-cryptate and streptavidin-XL665 in detection buffer). The fluorescence excitation wavelength was […]. The fluorescence at 665 nm (acceptor emission wavelength) and 620 nm (donor emission wavelength) was measured with a PHERAstar FS plate reader (BMG, LABTECH, Ortenberg, Germany) using a time delay of 50 μs. All kinase assays were conducted using ATP concentrations below the enzyme Kmapp and kinase-specific biotinylated substrate peptides.
(§3) The data for dose responses were plotted as percentage of inhibition calculated with the data reduction formula 100 × [1 − (U1 − C2)/(C1 − C2)] versus concentration of compound, where U is the emission ratio of 665 nm and 620 nm of test sample, C1 is the average value obtained for solvent control (2% DMSO), and C2 is the average value obtained for no reaction control (no kinase sample). Inhibition curves were generated by plotting percentage of control activity versus log10 of the concentration of each […]. The IC50 values were calculated by nonlinear regression with Graphpad Prism 5 (GraphPad Software, San Diego, CA).

[2] = target: T2, MET (Homo sapiens, UniProt P08581); assay: HTRF enzyme assay with recombinant MET kinase domain; conditions: purified recombinant MET kinase domain, read-out: Inhibitory Activity, IC50, MET
T2 construct: was evaluated using an enzyme assay with a recombinant kinase domain; purchased Invitrogen (Carlsbad, CA, US)
T2 sequence (P08581 1078-1345 limits assumed): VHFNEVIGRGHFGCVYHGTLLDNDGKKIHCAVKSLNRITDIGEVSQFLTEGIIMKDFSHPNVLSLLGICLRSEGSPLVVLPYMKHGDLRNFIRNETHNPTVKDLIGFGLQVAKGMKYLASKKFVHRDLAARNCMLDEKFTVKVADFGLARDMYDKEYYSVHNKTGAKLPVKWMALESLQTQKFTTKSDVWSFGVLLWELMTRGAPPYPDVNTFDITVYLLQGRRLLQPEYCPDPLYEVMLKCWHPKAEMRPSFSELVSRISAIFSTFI
Description: as §1, §2, §3

[3] = target: T3, c-Kit (Homo sapiens, UniProt P10721); assay: HTRF enzyme assay with recombinant c-Kit kinase domain; conditions: purified recombinant c-Kit kinase domain, HTRF; read-out: Inhibitory Activity, IC50, c-Kit
T3 construct: was evaluated using an enzyme assay with a recombinant kinase domain; purchased Invitrogen (Carlsbad, CA, US)
T3 sequence (P10721 589-937 limits assumed): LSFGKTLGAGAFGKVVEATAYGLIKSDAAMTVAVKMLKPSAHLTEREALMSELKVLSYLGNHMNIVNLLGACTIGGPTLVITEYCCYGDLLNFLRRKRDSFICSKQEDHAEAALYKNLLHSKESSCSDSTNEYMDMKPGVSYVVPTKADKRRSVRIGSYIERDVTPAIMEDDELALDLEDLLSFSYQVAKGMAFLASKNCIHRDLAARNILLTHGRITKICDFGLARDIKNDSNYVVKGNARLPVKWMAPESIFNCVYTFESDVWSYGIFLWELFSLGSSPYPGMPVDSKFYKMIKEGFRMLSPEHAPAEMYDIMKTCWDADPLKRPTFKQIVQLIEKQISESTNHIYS
Description: as §1, §2, §3

T1 sequence (P35968 834-1162 limits assumed): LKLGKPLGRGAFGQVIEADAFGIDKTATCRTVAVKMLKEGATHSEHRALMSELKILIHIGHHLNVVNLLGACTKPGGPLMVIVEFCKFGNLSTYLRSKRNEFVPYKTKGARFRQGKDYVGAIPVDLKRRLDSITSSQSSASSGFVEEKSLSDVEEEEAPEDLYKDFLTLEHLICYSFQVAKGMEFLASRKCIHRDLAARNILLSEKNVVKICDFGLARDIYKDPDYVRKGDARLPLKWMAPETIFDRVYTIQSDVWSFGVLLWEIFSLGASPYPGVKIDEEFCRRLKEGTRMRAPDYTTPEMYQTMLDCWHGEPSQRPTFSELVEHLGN

IC50 [1]	IC50 [2]	IC50 [3]	Compound
0.691 µM	> 5 µM	> 5 µM	O=c1c2c(Nc3c(Cl)cccc3Cl)nccc2ccn1-c1ccc(F)cc1 [Compound 9c, 8-((2,6-dichlorophenyl)amino)-2-(4-fluorophenyl)-2,7-naphthyridin-1(2H)-one]
> 5 µM	> 5 µM	> 5 µM	Cc1cc2ccnc(NCc3cccc4ccccc34)c2c(=O)n1-c1ccc(OC(F)(F)F)cc1 [Compound 10q, 3-methyl-8-((naphthalen-1-ylmethyl)amino)-2-(4-(trifluoromethoxy)phenyl)-2,7-naphthyridin-1(2H)-one]
> 5 µM	> 5 µM	> 5 µM	Cc1cc2ccnc(Nc3cccnc3)c2c(=O)n1-c1ccccc1 [Compound 10e, 3-methyl-2-phenyl-8-(pyridin-3-ylamino)-2,7-naphthyridin-1(2H)-one]
0.263 µM	> 5 µM	> 5 µM	Cc1cc2ccnc(NCc3ccncc3)c2c(=O)n1-c1ccc(Cl)cc1 [Compound 10k, 2-(4-chlorophenyl)-3-methyl-8-((pyridin-4-ylmethyl)amino)-2,7-naphthyridin-1(2H)-one]

Source: PMC6943726, “Discovery of 8-Amino-Substituted 2-Phenyl-2,7-Naphthyridinone Derivatives as New c-Kit/VEGFR-2 Kinase Inhibitors” (Molecules, 2019)
